Laboratory results: patent publication US8962637B2, “Bicyclic compounds and their uses as dual c-SRC/JAK inhibitors” (Debiopharm S.A., priority 2010, dated 2015)

Columns and labels:
JAK2 = JAK2 (Homo sapiens (Human), UniProt O60674); assay: TR-FRET JAK2 kinase assay; type: biochemical; conditions: ATP 10 μM
Protocol: Compounds were screened in the TR-FRET assay for JAK2 and c-Src kinase inhibition. Ultra light poly GT (Perkin Elmer) was used as the substrate for JAK2 and c-Src with the ATP concentration of 10 μM and 50 μM, respectively. […] The dose-response curve fitting was done using GraphPad Prism software.

A549 cells = assay: Cell viability assay (XTT assay), A549; type: cell-based; conditions: Homo sapiens, 72 hrs
Protocol: Next day compounds were added to cells and incubated for 72 hrs. Compound treatment was done in triplicates. After 72 hrs cell culture media was aspirated from the wells and XTT working solution was added and plates were incubated for 2-5 hrs. […] EC50 values were calculated using Graphpad Prism. Tumor cell lines used in the examples of the present invention were procured from ATCC. Description of the cell lines is included in the following table: […]

A431 cancer cell line = assay: Inhibition of cell growth in A431; type: cell-based; conditions: Homo sapiens, A-431
B16F10 tumor cells = assay: B16F10 metastasis model; type: in vivo, C57B16 mice; conditions: for Metastasis Inhibition: B16F10 model; for % metastasis inhib.: Efficacy - B16F10 at 100 MPK
Protocol: IV injection of 0.1×10^6 B16F10 tumor cells in the tail vain of 60 male C57B16 mice. Randomization of mice one day after tumor cell injection into 4 groups of 15 mice. Out of 15, 6 mice were sacrificed on 14th day for counting metastatic foci on lungs. Rest 9 mice were dosed continuously till morbidity/mortality for recording survival.
(§1) Formulation: 20% HPC, 2% ethanol solution in PBS for the compound No. 45
Plasma collected for drug concentration estimation and whole blood was collected to isolate PBMCs to determine pStat3 inhibition by flow cytometry as PD readout.

A431 tumor cells = assay: A431 xenograft model; type: in vivo, athymic nude mice; conditions: for TGI: Efficacy - A431 at 100 MPK
Protocol: SC injection of 5×10^6 A431 tumor cells with Matrigel® on the left flank of 24 female athymic nude mice. Randomization of mice 14 days after tumor cell injection into 3 groups of 8 mice each with a mean tumor volume of 90±1 mm3.
as §1
• Normal saline for Gefitinib® Dosing route: Oral for the compound No. 45 and Gefitinib® Dose Volume: 10 mL/Kg body weight Dosing schedule: Once daily for 14 consecutive days (Q1Dx14) PK-PD experiment in A431 model: Tumors were allowed to grow to 250 mm^3 size. Compounds were dosed once and PBMCs and tumors were collected at Tmax for pStat3 estimation. Plasma was also collected to estimate drug concentration estimation. Efficacy experiment in A431 model: Dosage: • Group1. Vehicle control • Group2. Compound No. 45—150 MPK • Group3. […] Plasma collected for drug concentration estimation and whole blood was collected to isolate PBMCs to determine pStat3 inhibition by flow cytometry as PD readout. Tumors were snap frozen in liquid nitrogen and stored at −80° C. to estimate pStat3 by flow cytometry as PD readout Determination of Plasma Drug Concentration: […]

pStat3 = assay: Quantification of pStat3 in PBMCs by flow cytometry; type: in vivo, mice
Protocol: Phosphorylation of Stat3 was stimulated by addition of hIL6 (10 ug/mL) for 30 min at 37° C. Blood was fixed with formaldehyde (final 2% v/v) for 10 min at 37° C.
Buffy coat (PBMCs) was separated by aspirating translucent layer using pipetteman and washed twice with PBS-1×
Pre chilled PBMC's were permeabilized by adding ice cold Methanol, while vortexing gently (final volume 90% MeOH v/v) and incubated for 30 min on ice.
Permeabilized PBMCs were washed with PBS once. PBMCs re-suspended to 2×10^6 cells in 200 μL of incubation buffer for 10 min at room temperature (RT). Primary Ab was added (1:100 dilution) and incubated 45 min at RT. Washed as before (twice) and re-suspended in fluorochrome conjugated secondary Ab (1:500 dilution) and incubated at RT in dark for 30 min. Washed and re-suspended in […] PBS.
Measured pStat3 using FACS caliber machine (BD). Unstained PBMCs was used for cytometry settings. […] Histograms (cell number V/s FL1-H) were plotted. Percentage of cells that are phosphorylated by IL6 stimulation (M2 population), and inhibition of phosphorylation by inhibitor (decrease in M2 population) are calculated on histogram by marking peaks, M1 and M2.

Volume distribution = conditions: in vivo
From the text: Table 8 provides some volume distribution values of the compounds of the present invention.

[1] = MTD / tolerance in athymic mice; conditions: once-daily 14 days treatment in athymic mice

Chain of JAK2 (O60674 whole entry): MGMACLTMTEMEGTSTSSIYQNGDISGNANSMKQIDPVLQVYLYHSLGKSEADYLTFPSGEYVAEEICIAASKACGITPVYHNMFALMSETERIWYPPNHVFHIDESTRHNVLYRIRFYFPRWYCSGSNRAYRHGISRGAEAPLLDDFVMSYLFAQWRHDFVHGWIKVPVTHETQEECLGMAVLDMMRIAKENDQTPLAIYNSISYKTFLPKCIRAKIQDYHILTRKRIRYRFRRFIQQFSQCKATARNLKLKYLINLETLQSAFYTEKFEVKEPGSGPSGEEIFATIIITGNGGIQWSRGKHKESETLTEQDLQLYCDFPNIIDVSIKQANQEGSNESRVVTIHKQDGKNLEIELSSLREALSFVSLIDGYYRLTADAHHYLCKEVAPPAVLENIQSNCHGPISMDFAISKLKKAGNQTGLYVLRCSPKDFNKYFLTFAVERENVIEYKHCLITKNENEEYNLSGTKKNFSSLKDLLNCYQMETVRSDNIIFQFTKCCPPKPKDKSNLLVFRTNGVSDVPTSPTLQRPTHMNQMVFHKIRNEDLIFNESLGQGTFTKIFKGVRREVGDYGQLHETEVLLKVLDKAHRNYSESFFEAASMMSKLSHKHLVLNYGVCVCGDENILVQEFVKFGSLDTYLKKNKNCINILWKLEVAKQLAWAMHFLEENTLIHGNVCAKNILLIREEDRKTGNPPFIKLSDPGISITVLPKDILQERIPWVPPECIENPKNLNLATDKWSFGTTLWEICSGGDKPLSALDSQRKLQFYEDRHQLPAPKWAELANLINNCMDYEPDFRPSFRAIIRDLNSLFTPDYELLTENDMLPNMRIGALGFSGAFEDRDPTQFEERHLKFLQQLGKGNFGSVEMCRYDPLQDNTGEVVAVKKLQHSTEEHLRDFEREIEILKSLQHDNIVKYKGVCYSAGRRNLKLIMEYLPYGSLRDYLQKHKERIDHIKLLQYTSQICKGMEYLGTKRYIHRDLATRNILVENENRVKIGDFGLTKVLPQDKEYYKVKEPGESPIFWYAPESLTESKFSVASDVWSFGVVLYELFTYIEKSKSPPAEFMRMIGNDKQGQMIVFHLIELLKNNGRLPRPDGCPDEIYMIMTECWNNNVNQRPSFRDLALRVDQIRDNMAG

Compound: Cc1ccc(NC(=O)c2cccc(C(F)(F)F)c2)cc1N1CCc2nc(Nc3ccc(N4CCN(C)CC4)cc3)ncc2C1=O [Compound 45, N-(4-Methyl-3-{2-[4-(4-methyl-piperazin-1-yl)-phenylamino]-5-oxo-7,8-dihydro-5H-pyrido[4,3-d]pyrimidin-6-yl}-phenyl)-3-trifluoromethyl-benzamide]
- IC50 (JAK2): 15 nM
- EC50 (A549 cells): 1070 nM
- EC50 (A431 cancer cell line): 1400 nM
- anti-tumor activity (B16F10 tumor cells; B16F10 metastasis model): good anti-tumor activity
- reduction in metastatic counts on lungs (B16F10 tumor cells; B16F10 metastasis model, 100 MPK, Q1Dx14): 75%
- Metastasis Inhibition (B16F10 tumor cells; 30 MPK): 73%
- Metastasis Inhibition (B16F10 tumor cells; 100 MPK): 75%
- % metastasis inhib. (B16F10 tumor cells): 75%
- % TGI (A431 tumor cells; A431 Xenograft model, 100 MPK): 52.55%
- TGI (A431 tumor cells): 48%
- PBMCs % pStat3 inhibition (pStat3; A431 Xenograft model, 100 MPK): 56.32%
- PBMCs % pStat3 inhibition (pStat3; A549 Xenograft model, 10 MPK): 55.61%
- PBMCs % pStat3 inhibition (pStat3; A549 Xenograft model, 30 MPK): 60.66%
- PBMCs % pStat3 inhibition (pStat3; A549 Xenograft model, 100 MPK): 65.28%
- PBMCs % pStat3 inhibition (pStat3; A549 Xenograft model, 150 MPK): 76.56%
- PBMCs % pStat3 inhibition (pStat3; B16F10 model, 30 MPK): 66%
- PBMCs % pStat3 inhibition (pStat3; B16F10 model, 100 MPK): 73%
- % pSTAT3 inhibition in PBMCs (MTD study) (pStat3; at 100 MPK): 84% at
- Vd (Volume distribution): 5.89 L/kg
- toxicity effects on major organs [1]: does not cause pronounced toxicity effects on major organs

Compound: Cc1ccc(NC(=O)c2cccc(C(F)(F)F)c2)cc1N1CCc2nc(Nc3ccc(C(=O)NC4CC4)nc3)ncc2C1 [Compound 117, 5-{6-[2-Methyl-5-(3-trifluoromethyl-benzoylamino)-phenyl]-5,6,7,8-tetrahydro-pyrido[4,3-d]pyrimidin-2-ylamino}-pyridine-2-carboxylic acid cyclopropylamide]
- IC50 (JAK2): 18 nM
- EC50 (A549 cells): 25 nM
- EC50 (A431 cancer cell line): 330 nM
- % metastasis inhib. (B16F10 tumor cells): 26%
- TGI (A431 tumor cells): 54%
- % pSTAT3 inhibition in PBMCs (MTD study) (pStat3; at 100 MPK): 83% at

Compound: CNC(=O)c1ccc(Nc2ncc3c(n2)CCN(c2cc(NC(=O)c4cc(C(F)(F)F)ccn4)ccc2Cl)C3)cc1 [Compound 179, 4-Trifluoromethyl-pyridine-2-carboxylic acid {4-chloro-3-[2-(4-methylcarbamoyl-phenylamino)-7,8-dihydro-5H-pyrido[4,3-d]pyrimidin-6-yl]-phenyl}-amide]
- IC50 (JAK2): 6.4 nM
- inhibition at 0.1 µM (JAK2; read-out: JAK2 % inhibition at 100 nM, 100 nM): 81%
- inhibition at 1 µM (JAK2; read-out: JAK2 % inhibition at 1 μM, 1 μM): 92%
- % metastasis inhib. (B16F10 tumor cells): 47%
- TGI (A431 tumor cells): 67%
- % pSTAT3 inhibition in PBMCs (MTD study) (pStat3; at 30 MPK): 65% at
